Legend:
Assay type in all cases: cell-based
[1] = tested on: human precision cut IPF lung slices; experiment: Secreted markers (ELISA) in precision cut IPF lung slices in culture; conditions: CRV431 applied at 5 μM; 4 daily treatment intervals; relative to DMSO vehicle
Protocol: (§1) This example describes a study conducted with precision cut lung slices. Precision cut slices from explanted lung tissue from a patient with biopsy-confirmed, idiopathic pulmonary fibrosis (IPF) were cultured for 6 days. Treatments were applied to 6 replicate slices per treatment on Day 2 of culture and replaced daily on Days 3, 4, and 5 of culture.
For generating the results of secreted marker (% daily average change) shown in FIG. 6A, spent medium (24-hr intervals) was collected on Days 3, 4, 5, and 6 to measure secretion by ELISA of six markers of inflammation and fibrosis: monocyte chemoattractant protein (MCP-1), interleukin-6 (IL-6), matrix metalloproteinase-7 (MMP-7), tissue inhibitor of metalloproteinase-1 (TIMP1), hyaluronic acid, and collagen 1α1. The mean level of secretion from 6 replicate slices for each drug treatment was expressed as a percentage change relative to DMSO vehicle treatment for each day of treatment, and then the mean percentage change from 4 daily treatment intervals was calculated.

[2] = tested on: human precision cut IPF lung slices; experiment: Gene expression (RT-PCR) in precision cut IPF lung slices in culture; conditions: CRV431 applied at 5 μM; Day 6 of culture after 4 days of treatment; β actin reference
Protocol: as §1
For generating the results of gene expression shown in FIG. 6B, RNA was isolated from 6 pooled lung slices per treatment on Day 6 of culture following 4 days of drug or vehicle treatment and evaluated by reverse transcription-polymerase chain reaction (RT-PCR) for 6 markers of inflammation and fibrosis: MCP-1, IL-6, TGFβ TIMP1, collagen 1α1, and α-smooth muscle actin (αSMA). β actin was used as a reference gene to calculate relative levels of each target gene RNA.

[3] = tested on: human precision cut liver slices (PCLS); experiment: PCLS biomarker secretion (ELISA); conditions: CRV431 applied at 5 μM; markers MCP-1, IL-6, TIMP1, hyaluronic acid, fibronectin, collagen 1α1
Protocol: (§2) PCLS were obtained from 5 human donors who underwent resection of liver cancer. Replicate slices were collected from healthy margins of the resections and cultured for 4 or 6 days depending on the experimental protocol. In the Nonstimulation Protocol slices were cultured for 6 days and treated for the entire period with DMSO vehicle or 5 μM CRV431. In the Stimulation Protocol slices were rested for 1 day and then administered the cytokines, TGFβ and PDGF-BB, for 3 days to stimulate inflammation and fibrosis. DMSO vehicle, CRV431 (1 and 5 μM), Alk5i (10 μM), obeticholic acid (5 μM), elafibranor (5 μM), resmetirom ([…]), and Aramchol (5 μM) were administered individually as drug treatments in the Stimulation Protocol concurrent with TGFβ+PDGF-BB. Culture medium treatments were replaced daily.
(§3) Four types of evaluations were conducted on the PCLS: (a) secretion of inflammation and fibrosis biomarkers into the culture medium, (b) histological staining and quantitation of Sirius red as a measure of tissue fibrosis, (c) gene expression of inflammation and fibrosis biomarkers by RT-PCR, and (d) RNA sequencing (RNA-Seq) of the complete transcriptome. Each of the four types of evaluation is described below: • (a) Biomarker secretion. Spent culture medium was collected daily from duplicate slices for each treatment. ELISAs were used to quantify secretion of monocyte chemoattractant protein (MCP-1), interleukin-6 (IL-6), tissue inhibitor of metalloproteinase-1 (TIMP1), hyaluronic acid, fibronectin, and collagen 1α1. For each donor the mean level of biomarker secretion in each treatment group was expressed as a percentage change relative to DMSO vehicle, the percentages averaged for all donors, and finally the mean daily percentage change calculated from all days of evaluation. […] Sirius red was quantified morphometrically in the histological sections as the percentage area with Sirius red staining in 10 sections from each treatment. In the Nonstimulation Protocol the quantity of Sirius red staining was expressed relative to the vehicle group. In the Stimulation Protocol the quantity of Sirius red staining was expressed relative to nonstimulated PCLS (0%) and TGFβ+PDGF-BB-stimulated+vehicle PCLS (100%). […] RNA was isolated from duplicate liver slices per treatment at the end of the experiments and evaluated by RT-PCR for 5 markers of inflammation and fibrosis: MCP-1, IL-6, TIMP1, αSMA, and collagen 1α1. β actin was used as a reference gene to calculate relative levels of each target gene RNA. […] RNA sequencing of the complete transcriptome (30 million reads per sample) was conducted on vehicle and 5 μM CRV431 treatment groups from 3 donors both from the Nonstimulation and Stimulation Protocols. […]

[4] = tested on: human precision cut liver slices (PCLS); experiment: PCLS gene expression by RT-PCR; conditions: CRV431 applied at 5 μM; markers MCP-1, IL-6, TIMP1, αSMA, collagen 1α1
Protocol: as §2, §3

COC(=O)c1ccc2c(c1)NC(=O)/C2=C(\Nc1ccc(N(C)C(=O)CN2CCN(C)CC2)cc1)c1ccccc1 [nintedanib, reference compound]
decreased: mean daily secretion of all markers (MCP-1, IL-6, MMP-7, TIMP1, hyaluronic acid, collagen 1α1) [1] | gene expression of all markers (MCP-1, IL-6, TGFβ, TIMP1, collagen 1α1, αSMA) [2] | mean daily secretion of all markers [3] | gene expression of all markers [4]

Cc1ccc(=O)n(-c2ccccc2)c1 [pirfenidone, reference compound]
decreased: mean daily secretion of all markers (MCP-1, IL-6, MMP-7, TIMP1, hyaluronic acid, collagen 1α1) [1] | gene expression of all markers (MCP-1, IL-6, TGFβ, TIMP1, collagen 1α1, αSMA) [2] | mean daily secretion of all markers [3] | gene expression of all markers [4]

Source: US12409206B2, “Use of cyclosporine analogues for treating fibrosis” (Hepion Pharmaceuticals, Inc., priority 2020, dated 2025)
